Reference: patent US4518586A, “GRF Analogs III” (The Salk Institute for Biological Studies, priority 1983, dated 1985)
Square brackets hold non-standard residues; d marks the D form. Peptide text beside a SMILES is read from it. Nle = CCCC[C@H](N)C(=O)O

Tests used:
[1] = test system: cells of rat pituitary glands; test: in vitro assay of growth hormone release from cultured rat pituitary cells, side-by-side with hpGRF(1-40)-OH standard; format: cell-based; conditions: for Comparison %: GH release at equimolar concentrations relative to synthetic hpGRF(1-40)-OH standard (100%), incubation 3 to 4 hours, ir GH by radioimmunoassay
Experimental: To determine the effectiveness of the various synthetic peptides to promote the release of growth hormone, in vitro assays are carried out using synthetic hpGRF(1-40)-OH as a standard in side-by-side comparison with equimolar concentrations of the various other analogs and fragments synthesized. Cultures are used which include cells of rat pituitary glands removed some three to five days previously. Cultures which are considered optimal for the secretion of growth hormone are used for the comparative testing, in the general manner described in Vale et al. Endocrinology, 91, 562-572 (1972) and as more particularly described in Vale et al. Endocrinology, (1983), in press. Incubation with the substance to be tested is carried out for 3 to 4 hours, and aliquots of the culture medium are removed and processed to measure their contents in immunoreactive GH(ir GH) by a well-characterized radioimmunoassay.

[2] = test system: freely running normal male rats; test: in vivo GH secretion after injection through indwelling catheter in FLA-63-pretreated rats; set-up: species or system rat; conditions: male rats pretreated with FLA-63
Experimental: In addition to the in vitro tests for secretion of growth hormone, in vivo experiments inject the synthetic peptides through an indwelling catheter into freely running normal male rats after pretreating them with FLA-63, a dopamine hydroxylase inhibitor that suppresses spontaneous GH secretion without affecting the response to exogenous GRF. Blood samples are taken through the same catheter immediately prior to and 5 and 20 minutes after injections. […] Dosages between about 100 nanograms and about 50 micrograms of these peptides per Kg. of body weight are considered to be effective in causing GH secretion.

Compound	Comparison % [1]	duration compared with rGRF(1-29)-NH2 ([2]; GH levels in blood)	stimulation of the secretion of pituitary GH (GH levels in blood) ([2]; blood samples prior to and 5 and 20 minutes after injection, radioimmunoassay)	maximum effective concentration ([1]; in vitro GH secretion)
CCCC[C@H](NC(=O)[C@@H](NC(=O)[C@@H](CCC(=O)O)NC(=O)[C@H](Cc1c[nH]cn1)NC(=O)[C@H](CC(C)C)NC(=O)[C@H](CC(C)C)NC(=O)[C@H](CCCCN)NC(=O)[C@H](CCCNC(=N)N)NC(=O)[C@H](C)NC(=O)[C@H](Cc1ccc(O)cc1)NC(=O)[C@H](CC(C)C)NC(=O)[C@H](CCC(N)=O)NC(=O)CNC(=O)[C@H](CC(C)C)NC(=O)[C@@H](NC(=O)[C@H](CCCNC(=N)N)NC(=O)[C@H](CCCNC(=N)N)NC(=O)[C@H](Cc1ccc(O)cc1)NC(=O)[C@H](CO)NC(=O)[C@H](CO)NC(=O)[C@@H](NC(=O)[C@H](Cc1ccccc1)NC(=O)[C@@H](NC(=O)[C@H](C)NC(=O)[C@H](CC(=O)O)NC(=O)[C@H](C)NC(=O)[C@@H](N)Cc1c[nH]cn1)[C@@H](C)CC)[C@@H](C)O)[C@@H](C)CC)[C@@H](C)CC)C(=O)N[C@@H](CC(N)=O)C(=O)N[C@@H](CCCNC(=N)N)C(N)=O [[D-Glu^25, Nle^27]-rGRF(1-29)-NH2, H-His-Ala-Asp-Ala-Ile-Phe-Thr-Ser-Ser-Tyr-Arg-Arg-Ile-Leu-Gly-Gln-Leu-Tyr- Ala-Arg-Lys-Leu-Leu-His-D-Glu-Ile-Nle-Asn-Arg-NH2] (H-HADAIFTSSYRRILGQLYARKLLH[dE]I[Nle]NR-NH2)	125%	–	–	–
CCCC[C@H](NC(=O)[C@@H](NC(=O)[C@H](CCC(=O)O)NC(=O)[C@H](Cc1c[nH]cn1)NC(=O)[C@@H](CC(C)C)NC(=O)[C@H](CC(C)C)NC(=O)[C@H](CCCCN)NC(=O)[C@H](CCCNC(=N)N)NC(=O)[C@H](C)NC(=O)[C@H](Cc1ccc(O)cc1)NC(=O)[C@H](CC(C)C)NC(=O)[C@H](CCC(N)=O)NC(=O)CNC(=O)[C@H](CC(C)C)NC(=O)[C@@H](NC(=O)[C@H](CCCNC(=N)N)NC(=O)[C@H](CCCNC(=N)N)NC(=O)[C@H](Cc1ccc(O)cc1)NC(=O)[C@H](CO)NC(=O)[C@H](CO)NC(=O)[C@@H](NC(=O)[C@H](Cc1ccccc1)NC(=O)[C@@H](NC(=O)[C@H](C)NC(=O)[C@H](CC(=O)O)NC(=O)[C@H](C)NC(=O)[C@@H](N)Cc1c[nH]cn1)[C@@H](C)CC)[C@@H](C)O)[C@@H](C)CC)[C@@H](C)CC)C(=O)N[C@@H](CC(N)=O)C(=O)N[C@@H](CCCNC(=N)N)C(N)=O [[D-Leu^23, Nle^27]-rGRF(1-29)-NH2, H-His-Ala-Asp-Ala-Ile-Phe-Thr-Ser-Ser-Tyr-Arg-Arg-Ile-Leu-Gly-Gln-Leu-Tyr- Ala-Arg-Lys-Leu-D-Leu-His-Glu-Ile-Nle-Asn-Arg-NH2] (H-HADAIFTSSYRRILGQLYARKL[dL]HEI[Nle]NR-NH2)	160%	substantially longer duration	powerful stimulators of the secretion of pituitary GH	–
[D-Leu^23, Nle^27 ]-hpGRF(1-29)-NH2	–	–	–	about 1 nanomolar
